Results as given in US20230248647A1, “SILICA HYDROGEL COMPOSITE AND ITS USE” (DelSiTech Oy, priority 2020, published 2023).
Where a name gives a salt, the structure may show the parent alone.

Legend:
[1] = Solubility in water; assay type: physicochemical; settings: corresponds to 0.019 mg/ml
[2] = Particle size distribution analysis by laser diffraction (Sympatec HELOS H3973); assay type: physicochemical; settings: micronized particles
Procedure: For particle size distribution analysis, the non-active silica particles (which were used in silica hydrogel composite #29HG) were dispersed in ethanol, and the analysis was conducted using a Sympatec HELOS H3973 laser diffraction instrument. The particle size distribution for non-active silica particles is shown in Table 2 (D10, D50 and D90 means that 10%, 50%, and 90% of the particles are equal or smaller than the indicated size)
The particles size distribution analysis for micronized (described in Example 1) Anagrelide HCl particles was also conducted using a Sympatec HELOS H3973 laser diffraction instrument. The particle size was mainly between 1 and 200 micrometers, where D10 was 16.6 micrometers, D50 80.4 micrometers, and D90 155 micrometers.

[3] = In vivo pharmacokinetic experiment, oral and subcutaneous administration; parameters: species or system male SD (Sprague Dawley) rats; settings: for AUC(0-t) / Cmax / Tmax / half-life: male, Sprague-Dawley, rat, plasma
Procedure: Silica hydrogel composite #29HG was used as a depot for male SD (Sprague Dawley) rats (5 animals/dosing group) in subcutaneous (SC+a letter A-E referring to different groups) administration of Anagrelide, and for oral administration (PO). The oral dose was prepared by adding 18.00 mg of Anagrelide hydrochloride into […] of 10 w-% ethanol with vortexing and sonication to obtain a suspension with concentration of 0.5 mg/ml of Anagrelide hydrochloride. The oral dose (5 mg/kg) was provided only in 12 h study, and it was freshly made just prior to dosing. Both 12 hour and 10 d pharmacokinetic experiments were conducted for the silica hydrogel composite for 2 different anagrelide hydrochloride doses (17.5 mg/kg and 35 mg/kg), and 28 d experiment only for the dose of 35 mg/kg.
The bioanalysis was conducted by using LC-MS/MS. The desired serial concentrations of working solutions were achieved by diluting stock solution of analyte with 50% acetonitrile in water solution. 5 μL of working solutions (2, 5, 10, 20, 50, 100, 500, 1000, 5000, 10000 ng/mL) were added to 50 μL of the male blank SD Rat plasma to achieve calibration standards of 0.2-1000 ng/mL (0.2, 0.5, 1, 2, 5, 10, 50, 100, 500, 1000 ng/mL) in a total volume of 55 μL. Four quality control samples at 0.5 ng/mL, 1 ng/mL, 50 ng/mL and 800 ng/mL for plasma were prepared independently of those used for the calibration curves. These QC samples were prepared on the day of analysis in the same way as calibration standards. 55 μL of standards, 55 μL of QC samples and 55 μL of unknown samples (50 μL of plasma with 5 μL of blank solution) were added to 200 μL of acetonitrile containing IS mixture for precipitating protein respectively. Then the samples were vortexed for 30 s. After centrifugation at 4 degree Celsius, 4700 rpm for 15 min, the supernatant was diluted 3 times with water, and 10 μL of diluted supernatant was injected into the LC-MS/MS system for quantitative analysis. The mean plasma concentrations of Anagrelide Hydrochloride for 12 h experiment are shown in FIG. 4, and corresponding results for 10 d experiment in FIG. 5, and for 28 d experiment in FIG. 6.

[4] = cited from earlier work
[5] = po, 5 mg/kg, oral suspension 5 mg/kg, 12 h experiment
[6] = sc, 17.5 mg/kg, SCA, subcutaneous silica hydrogel composite #29HG depot 17.5 mg/kg, 12 h experiment
[7] = sc, 17.5 mg/kg, SCB, subcutaneous silica hydrogel composite #29HG depot 17.5 mg/kg, 10 d experiment
[8] = sc, 35 mg/kg, SCC, subcutaneous silica hydrogel composite #29HG depot 35 mg/kg, 12 h experiment
[9] = sc, 35 mg/kg, SCD, subcutaneous silica hydrogel composite #29HG depot 35 mg/kg, 10 d experiment
[10] = sc, 35 mg/kg, SCE, subcutaneous silica hydrogel composite #29HG depot 35 mg/kg, 28 d experiment

**Q.** For O=C1CN2Cc3c(ccc(Cl)c3Cl)N=C2N1 [Anagrelide HCl, Anagrelide hydrochloride], which “solubility in water as weight-%” value [1] is on record?
**A.** 0.0019 weight-%

**Q.** What about the D10 [2] of the same compound?
**A.** 16.6 micrometers

**Q.** What about the D50 [2] of the same compound?
**A.** 80.4 micrometers

**Q.** And the D90 [2]?
**A.** 155 micrometers

**Q.** What about the AUClast/D ([3]; PO, oral suspension 5 mg/kg, 12 h experiment) of the same compound?
**A.** 64 ± 47 ng·h/mL per mg/kg

**Q.** What about the AUClast/D ([3]; SCA, subcutaneous silica hydrogel composite #29HG depot 17.5 mg/kg, 12 h experiment) of the same compound?
**A.** 1.67 ± 0.4 ng·h/mL per mg/kg

**Q.** What about the AUClast/D ([3]; SCB, subcutaneous silica hydrogel composite #29HG depot 17.5 mg/kg, 10 d experiment) of the same compound?
**A.** 29.8 ± 12.5 ng·h/mL per mg/kg

**Q.** What about the AUClast/D ([3]; SCC, subcutaneous silica hydrogel composite #29HG depot 35 mg/kg, 12 h experiment) of the same compound?
**A.** 0.99 ± 0.3 ng·h/mL per mg/kg

**Q.** And the AUClast/D ([3]; SCD, subcutaneous silica hydrogel composite #29HG depot 35 mg/kg, 10 d experiment)?
**A.** 21.4 ± 9.1 ng·h/mL per mg/kg

**Q.** And the clinical symptoms ([3]; SD rats, entire experiment (PO 5 mg/kg; SC #29HG depot 17.5 and 35 mg/kg))?
**A.** No abnormal clinical symptoms were observed

**Q.** And the “release behaviour from plasma concentration results” value ([3]; delivered as solid particles in silica hydrogel composite, SC, SD rats)?
**A.** sustained and controlled release is achieved

**Q.** And the AUC(0-t) [3, 5]?
**A.** 320 ± 235 ng·h/mL

**Q.** What about the Cmax [3, 5] of the same compound?
**A.** 62 ± 47 ng/mL

**Q.** And the Tmax [3, 5]?
**A.** 3 ± 2 h

**Q.** And the half-life [3, 5]?
**A.** 1.3 ± 0.27 h

**Q.** What about the AUC(0-t) [3, 6] of the same compound?
**A.** 29.2 ± 7.1 ng·h/mL

**Q.** What about the Cmax [3, 6] of the same compound?
**A.** 4.55 ± 1.41 ng/mL

**Q.** And the Tmax [3, 6]?
**A.** 1.1 ± 0.55 h

**Q.** What about the half-life [3, 6] of the same compound?
**A.** 4.92 ± 0.85 h

**Q.** What about the AUC(0-t) [3, 7] of the same compound?
**A.** 521 ± 218 ng·h/mL

**Q.** And the Cmax [3, 7]?
**A.** 3.58 ± 1.51 ng/mL

**Q.** And the Tmax [3, 7]?
**A.** 96 ± 102 h

**Q.** What about the AUC(0-t) [3, 8] of the same compound?
**A.** 34.5 ± 10.6 ng·h/mL

**Q.** What about the Cmax [3, 8] of the same compound?
**A.** 6.3 ± 4.2 ng/mL

**Q.** What about the Tmax [3, 8] of the same compound?
**A.** 0.8 ± 0.27 h

**Q.** What about the half-life [3, 8] of the same compound?
**A.** 7.03 ± 1.04 h

**Q.** What about the AUC(0-t) [3, 9] of the same compound?
**A.** 749 ± 320 ng·h/mL

**Q.** And the Cmax [3, 9]?
**A.** 5.29 ± 2.28 ng/mL

**Q.** What about the Tmax [3, 9] of the same compound?
**A.** 154 ± 79 h

**Q.** What about the AUC(0-t) [3, 10] of the same compound?
**A.** 1600 ng·h/mL

**Q.** What about the Tmax [3, 10] of the same compound?
**A.** 188 h

**Q.** What about the half-life [3, 10] of the same compound?
**A.** 167 h

**Q.** What about the solubility in water [4] of the same compound?
**A.** 19 µg/mL

**Q.** With O=C1CN2Cc3c(ccc(Cl)c3Cl)N=C2N1 [Anagrelide] as the compound, how does the “solubility of base form compared with Anagrelide HCl” value ([4]; water) read?
**A.** even lower solubility than Anagrelide HCl
